# pEC50: −log10 of the molar value. Values joined by “and” are separate entries in the source; they are usually repeats but may differ in a detail not shown here. Identical values can stand only once.
# What was measured:
# human GPR119 [1] = target: T1, human GPR119 (Homo sapiens, UniProt Q8TDV5); assay: beta-arrestin functional assay (DiscoverX PathHunter U2OS hGPR119 beta-arrestin cells); type: cell-based; conditions: for pEC50: read-out: Human B-arrestin Functional EC50; for Emax: U2OS, read-out: Intrinsic Activity* (B-arrestin)
# T1 construct: host or cells: U2OS
# Protocol: GPR119 agonist activity was also determined with a cell-based assay utilizing DiscoverX PathHunter β-arrestin cell assay technology and their U2OS hGPR119 β-arrestin cell line (DiscoverX Cat # 93-0356C3). In this assay, agonist activation is determined by measuring agonist-induced interaction of β-arrestin with activated GPR119. A small, 42 amino acid enzyme fragment, called ProLink was appended to the C-terminus of GPR119. Arrestin was fused to the larger enzyme fragment, termed EA (Enzyme Acceptor). Activation of GPR119 stimulates binding of arrestin and forces the complementation of the two enzyme fragments, resulting in formation of a functional β-galactosidase enzyme capable of hydrolyzing substrate and generating a chemiluminescent signal.
# Specifically, U2OS hGPR119 β-arrestin cells (DiscoverX 1×10^7/mL) are removed from cryopreservation and diluted in growth medium (Minimum essential medium (MEM; Gibco Cat # 11095-080), 10% heat inactivated fetal bovine serum (HIFBS; Sigma Cat # F4135-100), […] sodium pyruvate (Sigma Cat # S8636), 500 microg/mL G418 (Sigma Cat # G8168) and 250 microg/mL Hygromycin B (Invitrogen Cat # 10687-010). The cell concentration was adjusted to 1.66×10^5 cells/mL and 30 mLs of this suspension was added to a T-175 flask and incubated at 37 degrees Celsius in a humidified environment in 5% carbon dioxide. After 48 hours, the cells were removed from the T-175 flask with enzyme-free cell dissociation buffer (Gibco cat # 13151-014), centrifuged at 800×g and then re-suspended in plating medium (Opti-MEM I (Invitrogen/BRL Cat # 31985-070) and 2% charcoal dextran treated fetal bovine serum (CD serum; HyClone Cat # SH30068.03). The cell concentration was adjusted to 2.5×10^5 cells/mL with plating medium and 10 microL of this cell suspension (2500 cells) was added to each well of a white Greiner 384-well low volume assay plate (VWR cat # 82051-458) and the plates were incubated at 37 degrees Celsius in a humidified environment in 5% carbon dioxide.
# After 16 hours (overnight) the assay plates were removed from the incubator and varying concentrations of each compound to be tested (diluted in assay buffer (1×HBSS+CaCl2+MgCl2 (Gibco Cat # 14025-092), 20 mM HEPES pH 7.0 (Gibco Cat # 15630-080) and 0.1% BSA (Sigma Cat # A9576)) were added to the assay plate wells in a volume of 2.5 microL (final DMSO concentration was 0.5%). After a 90 minute incubation at 37 degrees Celsius in a humidified environment in 5% carbon dioxide, 7.5 microL of Galacton Star β-galactosidase substrate (Path Hunter Detection Kit (DiscoveRx Cat # 93-0001); prepared as described in the manufacturers assay protocol) was added to each well of the assay plate. The plates were incubated at room temperature and after 60 minutes, changes in the luminescence were read with an Envision 2104 multilabel plate reader at 0.1 seconds per well. EC50 determinations were made from an agonist-response curves analyzed with a curve fitting program using a 4-parameter logistic dose response equation.
# T1 sequence (P32121 whole entry partner, one chain of several): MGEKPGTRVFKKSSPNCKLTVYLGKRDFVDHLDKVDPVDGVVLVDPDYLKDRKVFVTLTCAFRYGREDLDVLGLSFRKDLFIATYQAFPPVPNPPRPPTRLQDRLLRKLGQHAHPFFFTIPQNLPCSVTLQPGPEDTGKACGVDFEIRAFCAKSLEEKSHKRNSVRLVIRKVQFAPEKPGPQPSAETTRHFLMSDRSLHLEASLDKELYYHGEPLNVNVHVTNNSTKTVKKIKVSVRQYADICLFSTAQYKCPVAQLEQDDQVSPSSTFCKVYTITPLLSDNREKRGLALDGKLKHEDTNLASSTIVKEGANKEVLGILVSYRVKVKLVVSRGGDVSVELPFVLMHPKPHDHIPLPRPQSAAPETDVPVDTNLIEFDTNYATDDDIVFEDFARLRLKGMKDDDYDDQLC
# human GPR119 [2] = target: T2, human GPR119 (Homo sapiens, UniProt Q8TDV5); assay: beta-lactamase functional assay (hGPR119 HEK293-CRE beta-lactamase reporter); type: cell-based; conditions: for pEC50: read-out: Human B-lactamase Functional EC50; for Emax: read-out: Intrinsic Activity* (B-lactamase)
# T2 construct: host or cells: HEK293-CRE beta-lactamase cells
# T2 sequence (Q8TDV5 1-335): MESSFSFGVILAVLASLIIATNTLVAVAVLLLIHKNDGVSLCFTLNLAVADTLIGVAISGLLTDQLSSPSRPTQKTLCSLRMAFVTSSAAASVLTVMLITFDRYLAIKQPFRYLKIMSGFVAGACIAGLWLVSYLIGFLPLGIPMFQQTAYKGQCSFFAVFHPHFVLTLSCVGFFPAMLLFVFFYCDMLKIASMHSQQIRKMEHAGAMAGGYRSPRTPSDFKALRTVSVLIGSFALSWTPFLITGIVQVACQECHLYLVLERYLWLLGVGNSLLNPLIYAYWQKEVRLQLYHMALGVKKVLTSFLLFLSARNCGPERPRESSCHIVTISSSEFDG
# Protocol: The assay for GPR119 agonists utilizes a cell-based (hGPR119 HEK293-CRE beta-lactamase) reporter construct where agonist activation of human GPR119 is coupled to beta-lactamase production via a cyclic AMP response element (CRE). GPR119 activity is then measured utilizing a FRET-enabled beta-lactamase substrate, CCF4-AM (Live Blazer FRET-B/G Loading kit, Invitrogen cat # K1027). Specifically, hGPR119-HEK-CRE- beta-lactamase cells (Invitrogen 2.5×10^7/mL) were removed from liquid nitrogen storage, and diluted in plating medium (Dulbecco's modified Eagle medium high glucose (DMEM; Gibco Cat # 11995-065), 10% heat inactivated fetal bovine serum (HIFBS; Sigma Cat # F4135), 1×MEM Nonessential amino acids (Gibco Cat # 15630-080), 25 mM HEPES pH 7.0 (Gibco Cat # 15630-080), 200 nM potassium clavulanate (Sigma Cat # P3494). The cell concentration was adjusted using cell plating medium and 50 microL of this cell suspension ([…]) was added into each well of a black, clear bottom, poly-d-lysine coated 384-well plate (Greiner Bio-One cat# 781946) and incubated at 37 degrees Celsius in a humidified environment containing 5% carbon dioxide. After 4 hours the plating medium was removed and replaced with 40 microL of assay medium (Assay medium is plating medium without potassium clavulanate and HIFBS). Varying concentrations of each compound to be tested was then added in a volume of 10 microL (final DMSO≦0.5%) and the cells were incubated for 16 hours at 37 degrees Celsius in a humidified environment containing 5% carbon dioxide. Plates were removed from the incubator and allowed to equilibrate to room temperature for approximately 15 minutes. 10 microL of 6×CCF4/AM working dye solution (prepared according to instructions in the Live Blazer FRET-B/G Loading kit, Invitrogen cat # K1027) was added per well and incubated at room temperature for 2 hours in the dark. Fluorescence was measured on an EnVision fluorimetric plate reader, excitation 405 nm, emission 460 nm/535 nm. EC50 determinations were made from agonist-response curves analyzed with a curve fitting program using a 4-parameter logistic dose-response equation.
# [3] = U2OS hGPR119 beta-arrestin cells, 90 min incubation, one value per run
# [4] = percent of maximal activity relative to standard GPR119 agonist (WO2005121121) at 10 microM, one value per run
# [5] = marked **: curve extrapolated to 100%, relative to standard GPR119 agonist at 10 microM
SMILES,pEC50 (human GPR119 [1]; [3]),Emax (human GPR119 [1]; [4]) [%],Intrinsic Activity* (B-arrestin) (human GPR119 [1]; [4]),further results
"Cc1c(O[C@H]2CCN(C(=O)OC3(C)CC3)C[C@H]2F)ncnc1N1CCn2nccc21 (racemic) [Example 3, 1-Methylcyclopropyl (3R,4S)-4-{[6-(2,3-dihydro-1H-imidazo[1,2-b]pyrazol-1-yl)-5-methylpyrimidin-4-yl]oxy}-3-fluoropiperidine-1-carboxylate (racemic)]",7.13 and 7.04,83,68%,–
"Cc1c(O[C@H]2CCN(C(=O)OC(C)C)C[C@H]2F)ncnc1N1CCn2nccc21 (racemic) [Example 4, Isopropyl (3R,4S)-4-{[6-(2,3-dihydro-1H-imidazo[1,2-b]pyrazol-1-yl)-5-methylpyrimidin-4-yl]oxy}-3-fluoropiperidine-1-carboxylate (racemic)]",7.28,38,–,–
"Cc1c(O[C@@H]2CCN(C(=O)OC3(C)CC3)C[C@@H]2F)ncnc1N1CCn2nccc21 (single isomer, unassigned) [Example 5]",7.25 and 7.31,–,83% and 55%,–
"Cc1c(O[C@H]2CCN(C(=O)OC3(C)CC3)C[C@H]2F)ncnc1N1CCn2nccc21 (single isomer, unassigned) [Example 6]",7.33 and 6.92,–,87% and 65%,–
"Cc1c(OC2CCN(C(=O)OC(C)C)CC2)ncnc1N1CCn2nccc21 [Example 1, Isopropyl 4-{[6-(2,3-dihydro-1H-imidazo[1,2-b]pyrazol-1-yl)-5-methylpyrimidin-4-yl]oxy}piperidine-1-carboxylate]",–,–,–,"pEC50 (human GPR119 [2]; curve was extrapolated to 100% to calculate the EC50 (**), one value per run): 5.09 and 5.34; pEC50 (human GPR119 [2]; hGPR119 HEK293-CRE beta-lactamase cells, 16 h incubation, one value per run): 6.21 and 6.41 and 5.94 and 5.84; Emax (human GPR119 [2]; [5]): 100%; Intrinsic Activity* (B-lactamase) (human GPR119 [2]; [4]): 94% and 96%; Emax (human GPR119 [2]; [4]): 110%"
"Cc1c(OC2CCN(C(=O)OC3(C)CC3)CC2)ncnc1N1CCn2nccc21 [Example 2, 1-Methylcyclopropyl 4-{[6-(2,3-dihydro-1H-imidazo[1,2-b]pyrazol-1-yl)-5-methylpyrimidin-4-yl]oxy}piperidine-1-carboxylate]",–,–,–,Emax (human GPR119 [1]; [5]): 100%; pEC50 (human GPR119 [1]; curve was extrapolated to 100% to calculate the EC50 (**)): 6.50

# Source: US20120295845A1, “IMIDAZO-PYRAZOLES AS GPR119 INHIBITORS” (Pfizer Inc, priority 2009, published 2012)
